Measured values reported in US20240238424A1, “HETEROBIFUNCTIONAL COMPOUNDS AND METHODS OF TREATING DISEASE” (Halda Therapeutics OpCo, Inc., priority 2021, published 2024).

Each compound was assayed against T1, GSPT1 (Homo sapiens, UniProt P15170+Q96SW2) (assay: GSPT1 HiBit degradation assay). Settings: Table 3; HEK293 LgBiT cells expressing GSPT1_HiBiT, luminescence after 6 hours.
T1 construct: host or cells: HEK293 LgBiT cell line
Assay type: cell-based
From the text: Promega developed a HEK293 cell line that constitutively expresses LgBiT protein and GSPT1_HiBiT fusion protein. When both proteins are present, the HiBiT portion of the fusion protein combines with LgBiT protein to form a functional luciferase enzyme. Endurazine, a cell permeable small molecule, is converted by cellular esterases into furimazine, which the luciferase enzyme uses as a substrate to generate luminescence. When GSPT1 is degraded, the HiBit is also degraded. This prevents formation of fully functional luciferase, leading to a loss in luminescence. GSPT1 degradation therefore correlates with a decrease in luminescence and can be measured continuously over time. The concentration of compound at which 50% GSPT1 degradation occurs (DC50) was calculated using this system.
• HEK293 LgBiT Cell line (Promega Custom) • Endurazine Substrate (Promega Cat. #N2570) • DMEM (Gibco Cat. #11995) • Penicillin/Streptomycin (Gibco Cat. #15140-122) • Heat Inactivated Fetal Bovine Serum (Gibco Cat. #A38400-01) • Hygromycin B (Gibco Cat. #10-687-010) • 384 Well TC Treated White Microplate (Perkin Elmer Cat. #6007680)
HEK293 LgBiT cells were cultured in DMEM Media supplemented with 10% FBS, 5% Pen/Strep, 200 μg/ml hygromycin and stored in an incubator set at 37° C. and 5% CO2. 18-24 hours prior to compound treatment, HEK293 LgBiT cells were seeded at 1000 cells/well in a 384-well microplate in 25 μl complete media. The plate was spun at 300 g for 30 seconds and stored in the incubator overnight. The next day, compounds were titrated in DMSO and added to media supplemented with endurazine substrate. A 25 ul aliquot of 2× compound/endurazine in media were then added to the 384-well microplate with seeded cells. (Endurazine was used at a final concentration of 0.5×). The plate was spun at 300 g for 30 seconds and stored in the incubator. After 6 hours the plate was read on a Perkin Elmer MultiMode Plate Reader Envision 2105 to measure luminescence signal.

T1 sequence (P15170 whole entry): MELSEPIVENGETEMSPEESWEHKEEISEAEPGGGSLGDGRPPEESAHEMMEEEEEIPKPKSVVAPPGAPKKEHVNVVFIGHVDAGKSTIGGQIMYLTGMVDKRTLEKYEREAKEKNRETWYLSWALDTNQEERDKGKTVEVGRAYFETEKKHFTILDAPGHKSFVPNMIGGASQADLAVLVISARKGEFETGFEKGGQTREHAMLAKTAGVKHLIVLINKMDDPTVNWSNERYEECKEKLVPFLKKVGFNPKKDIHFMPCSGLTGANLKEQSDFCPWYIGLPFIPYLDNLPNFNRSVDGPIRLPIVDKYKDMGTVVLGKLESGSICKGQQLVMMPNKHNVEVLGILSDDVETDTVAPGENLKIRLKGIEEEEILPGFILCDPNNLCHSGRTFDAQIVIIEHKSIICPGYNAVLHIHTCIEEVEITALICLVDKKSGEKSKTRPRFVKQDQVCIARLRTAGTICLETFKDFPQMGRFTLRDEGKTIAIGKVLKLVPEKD
T1 sequence (Q96SW2 whole entry): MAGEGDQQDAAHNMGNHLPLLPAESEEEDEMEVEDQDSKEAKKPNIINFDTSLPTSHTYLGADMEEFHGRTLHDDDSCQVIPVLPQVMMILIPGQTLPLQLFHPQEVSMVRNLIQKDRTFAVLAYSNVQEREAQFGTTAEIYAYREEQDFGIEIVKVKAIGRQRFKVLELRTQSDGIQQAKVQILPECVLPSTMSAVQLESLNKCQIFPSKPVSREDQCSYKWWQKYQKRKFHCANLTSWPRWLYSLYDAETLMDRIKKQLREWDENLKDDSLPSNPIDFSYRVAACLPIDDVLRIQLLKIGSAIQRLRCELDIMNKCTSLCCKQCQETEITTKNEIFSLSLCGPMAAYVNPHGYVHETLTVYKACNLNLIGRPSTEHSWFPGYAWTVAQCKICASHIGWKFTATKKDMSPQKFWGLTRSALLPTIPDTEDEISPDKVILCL
T1 sequence (Q16531 whole entry partner): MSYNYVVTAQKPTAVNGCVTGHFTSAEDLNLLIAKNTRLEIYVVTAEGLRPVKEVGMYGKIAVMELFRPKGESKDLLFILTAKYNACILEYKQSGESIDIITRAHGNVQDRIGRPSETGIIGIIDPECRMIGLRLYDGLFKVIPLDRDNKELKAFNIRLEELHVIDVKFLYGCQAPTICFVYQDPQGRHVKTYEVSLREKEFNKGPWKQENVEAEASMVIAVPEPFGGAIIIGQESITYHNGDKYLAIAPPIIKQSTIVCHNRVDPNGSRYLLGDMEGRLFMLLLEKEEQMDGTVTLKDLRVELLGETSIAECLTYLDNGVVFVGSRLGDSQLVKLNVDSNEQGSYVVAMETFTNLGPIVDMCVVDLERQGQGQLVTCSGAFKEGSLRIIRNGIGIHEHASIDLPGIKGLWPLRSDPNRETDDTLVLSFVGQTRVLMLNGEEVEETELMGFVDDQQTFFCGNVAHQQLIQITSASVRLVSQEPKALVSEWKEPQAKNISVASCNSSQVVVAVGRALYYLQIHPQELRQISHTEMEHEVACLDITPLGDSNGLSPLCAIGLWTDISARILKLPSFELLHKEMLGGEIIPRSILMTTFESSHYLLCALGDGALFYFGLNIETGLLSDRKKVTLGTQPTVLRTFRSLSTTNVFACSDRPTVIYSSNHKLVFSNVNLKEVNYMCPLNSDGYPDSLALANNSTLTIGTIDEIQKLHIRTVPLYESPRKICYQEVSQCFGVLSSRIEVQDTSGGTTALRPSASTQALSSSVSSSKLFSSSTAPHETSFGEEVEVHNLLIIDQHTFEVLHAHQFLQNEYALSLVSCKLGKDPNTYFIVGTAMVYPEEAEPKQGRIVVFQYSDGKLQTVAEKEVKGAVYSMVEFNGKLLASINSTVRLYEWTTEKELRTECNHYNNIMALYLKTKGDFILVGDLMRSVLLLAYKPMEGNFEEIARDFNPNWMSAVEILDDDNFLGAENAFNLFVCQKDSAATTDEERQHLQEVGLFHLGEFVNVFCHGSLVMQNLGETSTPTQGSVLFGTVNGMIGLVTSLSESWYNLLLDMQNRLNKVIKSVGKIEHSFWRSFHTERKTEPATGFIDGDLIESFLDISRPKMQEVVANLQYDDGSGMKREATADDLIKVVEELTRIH

First: COc1cc(N2CCN(C(=O)COCCOCCOCCOCCOCCOCCOCCOCCOc3cc(Cl)cc(NC(=O)NCc4ccc5c(c4)CN(C4CCC(=O)NC4=O)C5=O)c3)CC2)ccc1Nc1ncc(Cl)c(Nc2ccccc2P(C)(C)=O)n1 (centres unmarked) [Compound I-26]
Second: COc1cc(N2CCN(C(=O)COCCOCCOCCOCCOCCOCCOCCOCCc3cc(Cl)cc(NC(=O)NCc4ccc5c(c4)CN(C4CCC(=O)NC4=O)C5=O)c3)CC2)ccc1Nc1ncc(Cl)c(Nc2ccccc2P(C)(C)=O)n1 (centres unmarked) [Compound I-27]
The DC50 of the first is higher: over 10 µM for the first, 5 to 10 µM for the second.

`CC1(C)[C@H](NC(=O)c2ccc(OCCOCCOCCOCCOCCOCCOCCOCCOCCc3cc(Cl)cc(NC(=O)NCc4ccc5c(c4)CN(C4CCC(=O)NC4=O)C5=O)c3)cc2)C(C)(C)[C@H]1Oc1ccc(C#N)c(Cl)c1` (some centres unmarked) [Compound I-28] and `CC1(C)[C@H](NC(=O)c2ccc(OCCOCCOCCOCCOCCOCCOCCOCCOCCOCCOCCc3cc(Cl)cc(NC(=O)NCc4ccc5c(c4)CN(C4CCC(=O)NC4=O)C5=O)c3)cc2)C(C)(C)[C@H]1Oc1ccc(C#N)c(Cl)c1` (some centres unmarked) [Compound I-29] fall in the same range of DC50: 0.25 to 5 µM for the first, 0.25 to 5 µM for the second.

`C=CC(=O)Nc1cc(Nc2nccc(-c3cn(C)c4ccccc34)n2)c(OC)cc1N(C)CCN(C)CCOCCOCCOCCOCCOCCOCCOc1cc(Cl)cc(NC(=O)NCc2ccc3c(c2)CN(C2CCC(=O)NC2=O)C3=O)c1` (centres unmarked) [Compound I-33] and `C=CC(=O)Nc1cc(Nc2nccc(-c3cn(C)c4ccccc34)n2)c(OC)cc1N(C)CCN(C)CCOCCOCCOCCOCCOCCOCCc1cc(Cl)cc(NC(=O)NCc2ccc3c(c2)CN(C2CCC(=O)NC2=O)C3=O)c1` (centres unmarked) [Compound I-34] fall in the same range of DC50: 5 to 10 µM for the first, 5 to 10 µM for the second.

`C=CC(=O)Nc1cc(Nc2nccc(-c3cn(C)c4ccccc34)n2)c(OC)cc1N(C)CCN(C)CCOCCOCCOCCOCCOCCOCCOCCOCCc1cc(Cl)cc(NC(=O)NCc2ccc3c(c2)CN(C2CCC(=O)NC2=O)C3=O)c1` (centres unmarked) [Compound I-35] and `C=CC(=O)Nc1cc(Nc2nccc(-c3cn(C)c4ccccc34)n2)c(OC)cc1N(C)CCN(C)CCOCCOCCOCCOCCOCCOCCOCCOCCOc1cc(Cl)cc(NC(=O)NCc2ccc3c(c2)CN(C2CCC(=O)NC2=O)C3=O)c1` (centres unmarked) [Compound I-57] cannot be ordered by DC50: over 10 µM for the first, over 10 µM for the second.

`C=CC(=O)Nc1cc(Nc2nccc(-c3cn(C)c4ccccc34)n2)c(OC)cc1N(C)CCN(C)CCOCCOCCOCCOCCOCCOCCOCCOCCOCCOCCc1cc(Cl)cc(NC(=O)NCc2ccc3c(c2)CN(C2CCC(=O)NC2=O)C3=O)c1` (centres unmarked) [Compound I-36] and `C=CC(=O)Nc1cc(Nc2nccc(-c3cn(C)c4ccccc34)n2)c(OC)cc1N(C)CCN(C)CCOCCOCCOCCOCCOCCOCCOCCOCCOCCOCCOc1cc(Cl)cc(NC(=O)NCc2ccc3c(c2)CN(C2CCC(=O)NC2=O)C3=O)c1` (centres unmarked) [Compound I-60] fall in the same range of DC50: 5 to 10 µM for the first, 5 to 10 µM for the second.

First: COc1cc(N2CCN(C(=O)COCCOCCOCCOCCOCCOCCOCCOCCOCCOCCc3cc(Cl)cc(NC(=O)NCc4ccc5c(c4)CN(C4CCC(=O)NC4=O)C5=O)c3)CC2)ccc1Nc1ncc(Cl)c(Nc2ccccc2P(C)(C)=O)n1 (centres unmarked) [Compound I-45]
Second: C=CC(=O)Nc1cc(Nc2nccc(-c3cn(C)c4ccccc34)n2)c(OC)cc1N(C)CCN(C)CCOCCOCCOCCOCCOCCOCCOCCOCCOCCOCCCCCCCCc1cc(Cl)cc(NC(=O)NCc2ccc3c(c2)CN(C2CCC(=O)NC2=O)C3=O)c1 (centres unmarked) [Compound I-63]
The DC50 of the first is higher: 5 to 10 µM for the first, under 0.25 µM for the second.

Compared with `CCN(CCOCCOCCOCCOCCOCCOCCCCCCCCc1cc(Cl)cc(NC(=O)NCc2ccc3c(c2)CN(C2CCC(=O)NC2=O)C3=O)c1)CCOc1ccc(C(=O)c2c(-c3ccc(O)cc3)sc3cc(O)ccc23)cc1` (centres unmarked) [Compound I-55], `CCN(CCOCCOCCOCCOCCOCCOCCCCCCCCCCCCCCc1cc(Cl)cc(NC(=O)NCc2ccc3c(c2)CN(C2CCC(=O)NC2=O)C3=O)c1)CCOc1ccc(C(=O)c2c(-c3ccc(O)cc3)sc3cc(O)ccc23)cc1` (centres unmarked) [Compound I-56] is higher in DC50: under 0.25 µM for the first, over 10 µM for the second.

Compared with `CCN(CCCCCCCCc1cc(Cl)cc(NC(=O)NCc2ccc3c(c2)CN(C2CCC(=O)NC2=O)C3=O)c1)CCOc1ccc(C(=O)c2c(-c3ccc(O)cc3)sc3cc(O)ccc23)cc1` (centres unmarked) [Compound I-58], `CCN(CCOCCOCCOCCOCCCCCCCCCCCCCCc1cc(Cl)cc(NC(=O)NCc2ccc3c(c2)CN(C2CCC(=O)NC2=O)C3=O)c1)CCOc1ccc(C(=O)c2c(-c3ccc(O)cc3)sc3cc(O)ccc23)cc1` (centres unmarked) [Compound I-59] is higher in DC50: under 0.25 µM for the first, 0.25 to 5 µM for the second.

`C=CC(=O)Nc1cc(Nc2nccc(-c3cn(C)c4ccccc34)n2)c(OC)cc1N(C)CCN(C)CCOCCOCCOCCOCCCCCCCCc1cc(Cl)cc(NC(=O)NCc2ccc3c(c2)CN(C2CCC(=O)NC2=O)C3=O)c1` (centres unmarked) [Compound I-61] and `C=CC(=O)Nc1cc(Nc2nccc(-c3cn(C)c4ccccc34)n2)c(OC)cc1N(C)CCN(C)CCOCCOCCOCCOCCOCCOCCCCCCCCc1cc(Cl)cc(NC(=O)NCc2ccc3c(c2)CN(C2CCC(=O)NC2=O)C3=O)c1` (centres unmarked) [Compound I-62] cannot be ordered by DC50: under 0.25 µM for the first, under 0.25 µM for the second.

`Cc1c(CC(=O)N(C)C)ccc(NC(=O)c2nn([C@H]3CCCN(C(=O)/C=C/CN(C)CCOCCOCCOCCOCCCCCCCCc4cc(Cl)cc(NC(=O)NCc5ccc6c(c5)CN(C5CCC(=O)NC5=O)C6=O)c4)C3)c3ncnc(N)c23)c1C` (some centres unmarked) [Compound I-64] and `Cc1c(CC(=O)N(C)C)ccc(NC(=O)c2nn(C3CCCN(C(=O)/C=C/CN(C)CCOCCOCCOCCOCCOCCOCCCCCCCCc4cc(Cl)cc(NC(=O)NCc5ccc6c(c5)CN(C5CCC(=O)NC5=O)C6=O)c4)C3)c3ncnc(N)c23)c1C` (centres unmarked) [Compound I-65] cannot be ordered by DC50: under 0.25 µM for the first, under 0.25 µM for the second.

Compared with `Cc1c(CC(=O)N(C)C)ccc(NC(=O)c2nn([C@H]3CCCN(C(=O)/C=C/CN(C)CCOCCOCCOCCOCCOCCOCCOCCOCCOCCOCCCCCCCCc4cc(Cl)cc(NC(=O)NCc5ccc6c(c5)CN(C5CCC(=O)NC5=O)C6=O)c4)C3)c3ncnc(N)c23)c1C` (some centres unmarked) [Compound I-66], `Cc1c(CC(=O)N(C)C)ccc(NC(=O)c2nn([C@@H]3CCCN(C(=O)/C=C/CN(C)CCOCCOCCOCCOCCOCCOCCOCCOCCCCCCCCc4cc(Cl)cc(NC(=O)NCc5ccc6c(c5)CN(C5CCC(=O)NC5=O)C6=O)c4)C3)c3ncnc(N)c23)c1C` (some centres unmarked) [Compound I-69] is lower in DC50: 0.25 to 5 µM for the first, under 0.25 µM for the second.

`C=CC(=O)Nc1cc(Nc2nccc(-c3cn(C)c4ccccc34)n2)c(OC)cc1N(C)CCN(C)CCOCCOCCOCCOCCOCCOCCOCCOCCCCCCCCc1cc(Cl)cc(NC(=O)NCc2ccc3c(c2)CN(C2CCC(=O)NC2=O)C3=O)c1` (centres unmarked) [Compound I-68] and `C=C(F)C(=O)N1CCN(c2nc(OC[C@H]3CCCN3CCCOCCOCCOCCOCCOCCOCCCCCCCCc3cc(Cl)cc(NC(=O)NCc4ccc5c(c4)CN(C4CCC(=O)NC4=O)C5=O)c3)nc3c2CCN(c2cccc4cccc(Cl)c24)C3)C[C@H]1CC#N` (some centres unmarked) [Compound I-71] cannot be ordered by DC50: under 0.25 µM for the first, under 0.25 µM for the second.

For `C=C(F)C(=O)N1CCN(c2nc(OC[C@@H]3CCCN3CCCOCCOCCOCCOCCCCCCCCc3cc(Cl)cc(NC(=O)NCc4ccc5c(c4)CN(C4CCC(=O)NC4=O)C5=O)c3)nc3c2CCN(c2cccc4cccc(Cl)c24)C3)C[C@@H]1CC#N` (some centres unmarked) [Compound I-70], the DC50 was under 0.25 µM.

Same assay, conditions: Table 3A; HEK293 LgBiT cells expressing GSPT1_HiBiT, luminescence after 6 hours

`Cc1c(CC(=O)N(C)C)ccc(NC(=O)c2nn([C@@H]3CCCN(C(=O)/C=C/CN(C)CCOCCOCCOCCOCCOCCOCCc4cc(Cl)cc(NC(=O)NCc5ccc6c(c5)CN(C5CCC(=O)NC5=O)C6=O)c4)C3)c3ncnc(N)c23)c1C` (stereo partly drawn) [Compound I-23, 4-amino-1-[(3R)-1-[(E)-4-[2-[2-[2-[2-[2-[2-[2-[3-chloro-5-[[2-(2,6-dioxo-3-piperidyl)-1-oxo-isoindolin-5-yl]methylcarbamoylamino]phenyl]ethoxy]ethoxy]ethoxy]ethoxy]ethoxy]ethoxy]ethyl-methyl-amino]but-2-enoyl]-3-piperidyl]-N-[4-[2-(dimethylamino)-2-oxo-ethyl]-2,3-dimethyl-phenyl]pyrazolo [3,4-d]pyrimidine-3-carboxamide] and `COc1cc(N2CCN(C(=O)COCCOCCOCCOCCOCCOCCOc3cc(Cl)cc(NC(=O)NCc4ccc5c(c4)CN(C4CCC(=O)NC4=O)C5=O)c3)CC2)ccc1Nc1ncc(Cl)c(Nc2ccccc2P(C)(C)=O)n1` (centres unmarked) [Compound I-25] cannot be ordered by DC50: over 10 µM for the first, over 10 µM for the second.

Going from `COc1cc(N2CCN(C(=O)COCCOCCOCCOCCOCCOCCOCCOCCOCCOCCOc3cc(Cl)cc(NC(=O)NCc4ccc5c(c4)CN(C4CCC(=O)NC4=O)C5=O)c3)CC2)ccc1Nc1ncc(Cl)c(Nc2ccccc2P(C)(C)=O)n1` (centres unmarked) [Compound I-24, 1-[3-chloro-5-[2-[2-[2-[2-[2-[2-[2-[2-[2-[2-[2-[4-[4-[[5-chloro-4-(2-dimethylphosphorylanilino)pyrimidin-2-yl]amino]-3-methoxy-phenyl]piperazin-1-yl]-2-oxo-ethoxy]ethoxy]ethoxy]ethoxy]ethoxy]ethoxy]ethoxy]ethoxy]ethoxy]ethoxy]ethoxy]phenyl]-3-[[2-(2,6-dioxo-3-piperidyl)-1-oxo-isoindolin-5-yl]methyl]urea] to `CCN(CCOCCOCCOCCOCCCCCCCCc1cc(Cl)cc(NC(=O)NCc2ccc3c(c2)CN(C2CCC(=O)NC2=O)C3=O)c1)CCOc1ccc(C(=O)c2c(-c3ccc(O)cc3)sc3cc(O)ccc23)cc1` (centres unmarked) [Compound I-77], the DC50 falls from over 10 µM to under 0.25 µM.
